According to US20150164895A1, “DETERMINING SENSITIVITY OF CELLS TO B-RAF INHIBITOR TREATMENT BY DETECTING KRAS MUTATION AND RTK EXPRESSION LEVELS” (GENENTECH, INC., priority 2009, published 2015):

Tests used:
[1] = tested on: Venus-C-RAF / CFP-K-RAS in HEK293T cells; experiment: C-RAF plasma membrane translocation, live cell confocal imaging; format: cell-based; design: dose or concentration left out as unconfirmed
Source text: Aliquots of the membrane and cytosolic fractions were immunoblotted with the indicated antibodies. (B) HEK293T cells were transiently transfected with Venus-C-RAF (green), CFP-K-RAS (red) and mCherry-H2B (blue).

[2] = tested on: B-RAFV600E cells; experiment: Cellular proliferation of B-RAFV600E cells in presence of EGF, single agents and combinations; format: cell-based; conditions: in combination with RAF inhibitor; 20 ng/ml EGF in the media
Procedure: (A) Cells were treated with […] compound in serum free media for 1 hour. For stimulation 20 ng/ml EGF was added for 5 min before cells were lysed. Lysates were transferred to an MSD plate where phospho- and total MEK levels were measured. […] Cells were dosed with indicated inhibitors, either alone or in combination in the presence of 20 ng/ml EGF in the media.

[3] = tested on: pERK in BRAF V600E cells expressing EGFR; experiment: pERK MSD assay, basal and EGF-stimulated; format: cell-based; conditions: serum starved, -EGF or +EGF
Procedure: (A) Table of genotype and EGFR levels among lines tested. (B) Measurement of basal and stimulated pERK levels: cells were treated with […] compound in serum free media for 1 hour. For stimulation 20 ng/ml EGF was added for 5 min before cells were lysed. Lysates were transferred to an MSD plate where phospho- and total ERK levels were measured. (C) pERK IC50 data are plotted for the two Raf inhibitors (CHR-265, 1-methyl-5-[[2-[5-(trifluoromethyl)-1H-imidazol-2-yl]-4-pyridinyl]oxy]-N-[4-(trifluoromethyl)phenyl]-1H-Benzimidazol-2-amine and GDC-0879) under basal and EGF-stimulated conditions.
FIG. 29 summarizes certain RAF inhibitor (GDC-0879, PLX-4720 and “Raf inh a” which is 2,6-difluoro-N-(3-methoxy-1H-pyrazolo[3,4-b]pyridin-5-yl)-3-(propylsulfonamido)benzamide) potencies for blocking cellular pERK induction in response to EGF stimulation.

[4] = tested on: HT-29 BRAF V600E human colorectal carcinoma xenografts; experiment: HT-29 xenograft combination efficacy; format: in vivo, NCR nude (Taconic) mice; conditions: RAF inh a and Tarceva given in combination
Procedure: (§1) In FIG. 34A, RAF inh a was given at 100 mg/kg with increasing doses of Tarceva. In FIG. 34B, Tarceva was given to all animals with increasing concentrations of RAF inh a. […] In FIG. 34C, lysates from tumors treated with the indicated doses of inhibitors in FIGS. 34A and B were analyzed for phospho-ERK (pERK) levels by western blot.

[5] = tested on: phospho-ERK (pERK) levels in HT-29 tumors; experiment: phospho-ERK western blot of HT-29 tumor lysates; format: in vivo; conditions: RAF inhibitor a and Tarceva co-administered in mice
Procedure: as §1

[6] = tested on: CX-1 cells; experiment: Combination study of RAF inhibitor and Tarceva in colon tumor lines; format: cell-based; conditions: Tarceva administered together with RAF inhibitor; CX-1 (high EGFR)
Source text: FIGS. 32A-C depict combination studies of RAF inhibitor and EGFR inhibitor (Tarceva) in colon tumor lines with different levels of EGFR expression.
In FIG. 32C, the effects of combination treatment of CX-1 cells with either RAF inhibitor alone, Tarceva alone or combination of RAF inhibitor and Tarceva are shown. Neither RAF inhibitor alone nor Tarceva alone suppress proliferation as effectively as the combination. Both inhibitors show good synergy when administered together to CX-1 cells.

**Q.** Which “Venus-tagged C-RAF membrane translocation” value [1] does the source give for `Cc1ccc(NC(=O)c2cccc(C(C)(C)C#N)c2)cc1Nc1ccc2ncn(C)c(=O)c2c1` [AZ-628, 3-(2-cyanopropan-2-yl)-N-(4-methyl-3-(3-methyl-4-oxo-3,4-dihydroquinazolin-6-ylamino)phenyl)benzamide] here?
**A.** Its value is “co-localizes with CFP-KRAS on the plasma membrane”.

**Q.** With `O=C(NOC[C@H](O)CO)c1ccc(F)c(F)c1Nc1ccc(I)cc1F` [PD-0325901] as the compound, how does the “resistance of cellular proliferation to RAF inhibitors under EGF” value [2] read?
**A.** The value was “overcomes that resistance”.

**Q.** Which “blocking wildtype RAF signaling / selectivity (pERK induction in response to EGF)” value [3] does the source give for `CCCS(=O)(=O)Nc1ccc(F)c(C(=O)c2c[nH]c3ncc(Cl)cc23)c1F` [PLX4720, N-[3-[(5-chloro-1H-pyrrolo[2,3-b]pyridin-3-yl)carbonyl]-2,4-difluorophenyl]-1-propanesulfonamide] here?
**A.** The value was “BRAF V600E selective”.

**Q.** Which results are given for `CCCS(=O)(=O)Nc1ccc(F)c(C(=O)Nc2cnc3[nH]nc(OC)c3c2)c1F` [Raf inh a, 2,6-difluoro-N-(3-methoxy-1H-pyrazolo[3,4-b]pyridin-5-yl)-3-(propylsulfonamido)benzamide]?
**A.** antitumor efficacy in combination [4]: Increased efficacy; phospho-ERK levels in the tumors [5]: synergized in decreasing phospho-ERK levels; blocking wildtype RAF signaling / selectivity (pERK induction in response to EGF) [3]: BRAF V600E selective

**Q.** Which “antitumor efficacy in combination” value [4] does the source give for `C#Cc1cccc(Nc2ncnc3cc(OCCOC)c(OCCOC)cc23)c1` [Tarceva, erlotinib] here?
**A.** Its value is “Increased efficacy”.

**Q.** What about the “resistance of cellular proliferation to RAF inhibitors under EGF” value [2] of the same compound?
**A.** The value was “overcomes that resistance”.

**Q.** What about the “phospho-ERK levels in the tumors” value [5] of the same compound?
**A.** The value was “synergized in decreasing phospho-ERK levels”.

**Q.** What about the “suppression of proliferation, combination effect” value [6] of the same compound?
**A.** Its value is “good synergy”.
